Measured values reported in the Kinase Knowledgebase extract (Sharma et al. 2016).

How the values were obtained:
PIK3CA (human) [1] = target: PIK3CA (human) (UniProt P42336); assay: Assessment of PIK3CA Kinase Activity Using One Step Solid Phase Assay
PIK3CA (human) [2] = target: PIK3CA (human) (UniProt P42336); assay: Assessment of PIK3CA Kinase Activity Using Homogenous Solution Phase Assay

Sequence of PIK3CA (human) (P42336 whole entry, looked up): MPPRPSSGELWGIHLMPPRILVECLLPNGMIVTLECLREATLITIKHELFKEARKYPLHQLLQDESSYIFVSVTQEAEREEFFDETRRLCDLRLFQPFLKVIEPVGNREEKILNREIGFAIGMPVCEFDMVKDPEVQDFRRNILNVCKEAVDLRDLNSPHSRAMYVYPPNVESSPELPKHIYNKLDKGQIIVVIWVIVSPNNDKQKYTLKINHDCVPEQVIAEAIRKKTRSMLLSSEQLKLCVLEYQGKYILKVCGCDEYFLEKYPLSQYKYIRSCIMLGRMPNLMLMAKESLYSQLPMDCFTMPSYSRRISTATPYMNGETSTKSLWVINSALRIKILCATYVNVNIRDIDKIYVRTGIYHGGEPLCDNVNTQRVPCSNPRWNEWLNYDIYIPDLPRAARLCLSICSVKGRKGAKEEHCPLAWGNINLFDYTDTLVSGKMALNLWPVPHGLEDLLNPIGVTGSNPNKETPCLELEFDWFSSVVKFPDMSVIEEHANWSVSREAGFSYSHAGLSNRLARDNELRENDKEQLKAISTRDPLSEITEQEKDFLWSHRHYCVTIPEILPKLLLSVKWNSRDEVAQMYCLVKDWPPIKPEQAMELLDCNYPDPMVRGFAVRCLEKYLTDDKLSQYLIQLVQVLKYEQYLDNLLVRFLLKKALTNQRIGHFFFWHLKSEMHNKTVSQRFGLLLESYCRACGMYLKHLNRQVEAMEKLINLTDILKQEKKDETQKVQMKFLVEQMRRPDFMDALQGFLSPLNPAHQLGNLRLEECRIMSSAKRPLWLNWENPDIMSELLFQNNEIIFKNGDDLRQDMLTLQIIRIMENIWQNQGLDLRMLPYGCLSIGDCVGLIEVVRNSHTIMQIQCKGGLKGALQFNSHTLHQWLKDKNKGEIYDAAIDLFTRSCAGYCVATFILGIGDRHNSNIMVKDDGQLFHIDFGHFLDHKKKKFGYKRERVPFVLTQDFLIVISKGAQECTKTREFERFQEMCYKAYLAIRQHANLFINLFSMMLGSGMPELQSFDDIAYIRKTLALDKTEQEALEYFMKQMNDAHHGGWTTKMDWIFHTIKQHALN

SMILES	IC50 (PIK3CA (human) [1]) [µM]	IC50 (PIK3CA (human) [2]) [µM]
Oc1cccc(-c2cc(Nc3ccc4c(c3)OCCCO4)nc(N3CCOCC3)n2)c1	< 20	–
Oc1cccc(-c2cc(Nc3ccc4c(c3)NCC4)nc(N3CCOCC3)n2)c1	–	< 20
COc1cccc(-c2cc(N3CCOCC3)nc(N3CCOCC3)n2)c1	< 20	< 20
COc1ccc(Nc2cc(-c3cccc(O)c3)nc(N3CCOCC3)n2)cc1O	–	< 20
COc1ccc(Nc2cc(-c3cccc(O)c3)nc(N3CCOCC3)n2)c(OC)c1	< 20	–
Fc1ccccc1-c1cc(Nc2ccc3[nH]ncc3c2)nc(N2CCOCC2)n1	< 20	–
Oc1cccc(-c2cc(Nc3ncccn3)nc(N3CCOCC3)n2)c1	< 20	< 20
Oc1cccc(-c2cc(Nc3ccc4c(c3)OCCO4)nc(N3CCOCC3)n2)c1	–	< 20
Oc1cccc(-c2cc(NCCc3cccnc3)nc(N3CCOCC3)n2)c1	< 20	–
CS(=O)(=O)Nc1cccc(-c2cc(Nc3cccnc3)nc(N3CCOCC3)n2)c1	< 20	< 20
CCn1c(C)nc2cc(Nc3cc(-c4cccc(O)c4)nc(N4CCOCC4)n3)ccc21	< 20	–
Oc1cccc(-c2cc(Nc3cnccn3)nc(N3CCOCC3)n2)c1	–	< 20
Oc1cccc(-c2cc(Nc3ccc4c(c3)CCC4)nc(N3CCOCC3)n2)c1	–	< 20
COCCNc1cc(-c2cccc(O)c2)nc(N2CCOCC2)n1	< 20	< 20
COc1ccc(Nc2cc(-c3cccc(O)c3)nc(N3CCOCC3)n2)cc1Cl	–	< 20
Oc1cccc(-c2cc(Nc3ccc4c(c3)Cc3ccccc3-4)nc(N3CCOCC3)n2)c1	–	< 20
Oc1cccc(-c2cc(N(Cc3ccccc3)Cc3nccs3)nc(N3CCOCC3)n2)c1	–	< 20
CCOc1ccc(OCC)c(Nc2cc(-c3cccc(O)c3)nc(N3CCOCC3)n2)c1	< 20	–
COc1cc(Nc2cc(-c3cccc(O)c3)nc(N3CCOCC3)n2)cc(OC)c1OC	–	< 20
Nc1cc(-c2cccc(O)c2)nc(N2CCOCC2)n1	–	< 20
Cc1ccc(Nc2cc(-c3cccc(O)c3)nc(N3CCOCC3)n2)cc1C	–	< 20
Oc1ccc(Br)c(-c2cc(Nc3cccnc3)nc(N3CCOCC3)n2)c1	< 20	< 20
CC(=O)N1CCc2ccc(Nc3cc(-c4cccc(O)c4)nc(N4CCOCC4)n3)cc21	–	< 20
CC(=O)Oc1cccc(-c2cc(Nc3cccnc3)nc(N3CCOCC3)n2)c1	< 20	< 20
Oc1cccc(-c2cc(N3CCN(c4cccc(Cl)c4)CC3)nc(N3CCOCC3)n2)c1	< 20	–

SMILES	IC50 (PIK3CA (human) [1]) [µM]	IC50 (PIK3CA (human) [2]) [µM]
COc1c(Nc2cc(-c3cccc(O)c3)nc(N3CCOCC3)n2)ccc2c1oc1ccccc12	< 20	–
Cc1ccc(O)cc1-c1cc(Nc2cccnc2)nc(N2CCOCC2)n1	–	< 20
Oc1cccc(Nc2cc(-c3cccc(O)c3)nc(N3CCOCC3)n2)c1	< 20	–
COc1cccc(C)c1Nc1cc(-c2cccc(O)c2)nc(N2CCOCC2)n1	< 20	–
COC(=O)Oc1cccc(-c2cc(Nc3cccnc3)nc(N3CCOCC3)n2)c1	< 20	< 20
CC(C)C(N)C(=O)Oc1cccc(-c2cc(Nc3cccnc3)nc(N3CCOCC3)n2)c1 (stereo unspecified)	< 20	< 20
Oc1cccc(-c2cc(NCc3ccncc3)nc(N3CCOCC3)n2)c1	< 20	< 20
Oc1cccc(-c2cc(Nc3ccc4[nH]ncc4c3)nc(N3CCCNCC3)n2)c1	–	< 20
Oc1cccc(-c2cc(Nc3cccc(Oc4ccccc4)c3)nc(N3CCOCC3)n2)c1	< 20	–
Oc1cccc(-c2cc(Nc3ccc(Oc4ccccc4)cc3)nc(N3CCOCC3)n2)c1	< 20	–
COc1cccc(Nc2cc(-c3cccc(O)c3)nc(N3CCOCC3)n2)c1	< 20	–
Oc1cccc(-c2cc(Nc3ccccc3O)nc(N3CCOCC3)n2)c1	< 20	–
Oc1cccc(-c2cc(Nc3ccc4nc[nH]c4c3)nc(N3CCOCC3)n2)c1	–	< 20
C[C@@H](Nc1cc(-c2cccc(O)c2)nc(N2CCOCC2)n1)c1ccccc1	< 20	< 20
COc1cccc(Nc2cc(-c3cccc(O)c3)nc(N3CCOCC3)n2)c1OC	< 20	–
C[C@@H]1COC[C@H](C)N1c1cc(-c2cccc(O)c2)nc(N2CCOCC2)n1	< 20	< 20
Oc1cccc(-c2cc(Nc3cccnc3)nc(N3CCOCC3)n2)c1F	< 20	< 20
Cc1ccc(CN(Cc2cccnc2)c2cc(-c3cccc(O)c3)nc(N3CCOCC3)n2)cc1	< 20	–
O=[N+]([O-])c1ccc(N2CCN(c3cc(-c4cccc(O)c4)nc(N4CCOCC4)n3)CC2)cc1	< 20	< 20
O=[N+]([O-])c1cc(Nc2cc(-c3cccc(O)c3)nc(N3CCOCC3)n2)ccc1O	–	< 20
COc1ccccc1Nc1cc(-c2cccc(O)c2)nc(N2CCOCC2)n1	< 20	–
Oc1cccc(-c2cc(Nc3ccc4nn[nH]c4c3)nc(N3CCOCC3)n2)c1	< 20	< 20
Oc1cccc(-c2cc(Nc3ccc(O)nc3)nc(N3CCOCC3)n2)c1	< 20	< 20
Oc1cccc(-c2cc(N3CCN(CCc4ccccc4)CC3)nc(N3CCOCC3)n2)c1	< 20	–
Oc1cccc(-c2cc(Nc3ccc4[nH]ncc4c3)nc(N3CCCCCC3)n2)c1	–	< 20

SMILES	IC50 (PIK3CA (human) [1]) [µM]	IC50 (PIK3CA (human) [2]) [µM]
COc1cccc(-c2cc(Nc3cccnc3)nc(N3CCOCC3)n2)c1	–	< 20
COc1ccc(Nc2cc(-c3cccc(O)c3)nc(N3CCOCC3)n2)cc1F	–	< 20
COc1ccc(OC)c(Nc2cc(-c3cccc(O)c3)nc(N3CCOCC3)n2)c1	< 20	–
CCOc1ccc(Nc2cc(-c3cccc(O)c3)nc(N3CCOCC3)n2)cc1	< 20	–
O=C(CN1CCN(c2cc(-c3cccc(O)c3)nc(N3CCOCC3)n2)CC1)N1CCOCC1	< 20	–
CCCCOc1ccc(Nc2cc(-c3cccc(O)c3)nc(N3CCOCC3)n2)cc1	< 20	–
Oc1cccc(-c2cc(NCCc3ccccn3)nc(N3CCOCC3)n2)c1	< 20	–
Oc1cccc(-c2cc(Nc3cccc(OCc4ccccc4)c3)nc(N3CCOCC3)n2)c1	< 20	–
Oc1cccc(-c2cc(N3CCN(Cc4ccc5c(c4)OCO5)CC3)nc(N3CCOCC3)n2)c1	< 20	–
Oc1cccc(-c2cc(NCCc3ccncc3)nc(N3CCOCC3)n2)c1	< 20	< 20
c1cc(OCCN2CCCCC2)cc(-c2cc(Nc3ccc4[nH]ncc4c3)nc(N3CCOCC3)n2)c1	< 20	< 20
Fc1cccc(-c2cc(Nc3cccnc3)nc(N3CCOCC3)n2)c1	–	< 20
Oc1ccc(F)c(-c2cc(Nc3cccnc3)nc(N3CCOCC3)n2)c1	< 20	< 20
COc1cc(Nc2ccccc2)ccc1Nc1cc(-c2cccc(O)c2)nc(N2CCOCC2)n1	< 20	–
FC(F)(F)c1cccc(-c2cc(Nc3cccnc3)nc(N3CCOCC3)n2)c1	–	< 20
Oc1cccc(-c2cc(N3CCCNCC3)nc(N3CCOCC3)n2)c1	< 20	< 20
COc1ccc(Nc2cc(-c3cccc(O)c3)nc(N3CCOCC3)n2)cc1OC1CCCC1	< 20	–
Nc1cccc(-c2cc(Nc3cccnc3)nc(N3CCOCC3)n2)c1	< 20	< 20
Oc1cccc(-c2cc(Nc3ccc4c(c3)OCO4)nc(N3CCOCC3)n2)c1	–	< 20
Cc1ccc(-c2cc(Nc3cccnc3)nc(N3CCOCC3)n2)cc1O	< 20	< 20
Oc1cccc(-c2cc(NCCCn3ccnc3)nc(N3CCOCC3)n2)c1	< 20	–
COc1cccc(N2CCN(c3cc(-c4cccc(O)c4)nc(N4CCOCC4)n3)CC2)c1	< 20	< 20
CCOc1ccccc1Nc1cc(-c2cccc(O)c2)nc(N2CCOCC2)n1	< 20	–
Oc1cccc(-c2cc(Nc3ccccn3)nc(N3CCOCC3)n2)c1	–	< 20
CCOc1ccc(NC(C)=O)cc1Nc1cc(-c2cccc(O)c2)nc(N2CCOCC2)n1	< 20	< 20

SMILES	IC50 (PIK3CA (human) [1]) [µM]	IC50 (PIK3CA (human) [2]) [µM]
CC(C)C(=O)Oc1cccc(-c2cc(Nc3cccnc3)nc(N3CCOCC3)n2)c1	< 20	< 20
O=c1[nH]c2ccc(Nc3cc(-c4cccc(O)c4)nc(N4CCOCC4)n3)cc2[nH]1	–	< 20
OCC1CCCN1c1cc(-c2cccc(O)c2)nc(N2CCOCC2)n1 (stereo unspecified)	–	< 20
Oc1cccc(-c2cc(N3CCN(c4ccccn4)CC3)nc(N3CCOCC3)n2)c1	< 20	< 20
Oc1cccc(-c2cc(Nc3cccc4cnccc34)nc(N3CCOCC3)n2)c1	–	< 20
Oc1cc(-c2cc(Nc3cccnc3)nc(N3CCOCC3)n2)ccc1Cl	< 20	< 20
CN1CCCN(c2cc(-c3cccc(O)c3)nc(N3CCOCC3)n2)CC1	< 20	–
CCCC(=O)Oc1cccc(-c2cc(Nc3cccnc3)nc(N3CCOCC3)n2)c1	< 20	< 20
Oc1cccc(-c2cc(N(Cc3ccccc3)Cc3ccccc3)nc(N3CCOCC3)n2)c1	< 20	–
Oc1cccc(-c2cc(Nc3cc(Cl)ccc3O)nc(N3CCOCC3)n2)c1	< 20	–
N[C@@H]1CCCC[C@H]1Nc1cc(-c2cccc(O)c2)nc(N2CCOCC2)n1	< 20	–
CCC(CO)(CO)Nc1cc(-c2cccc(O)c2)nc(N2CCOCC2)n1	< 20	< 20
Oc1ccc(Nc2cc(-c3cccc(O)c3)nc(N3CCOCC3)n2)cc1	< 20	–
COc1ccc(Nc2cc(-c3ccccc3)nc(N3CCOCC3)n2)cc1O	< 20	–
Oc1cccc(-c2cc(Nc3cc(-c4ccccc4)ccc3O)nc(N3CCOCC3)n2)c1	< 20	–
Oc1cccc(-c2cc(N3CCC(O)CC3)nc(N3CCOCC3)n2)c1	< 20	–
Cc1ccc(CN(Cc2ccccn2)c2cc(-c3cccc(O)c3)nc(N3CCOCC3)n2)cc1	< 20	–
NC1CCCC(Nc2cc(-c3cccc(O)c3)nc(N3CCOCC3)n2)C1 (stereo unspecified)	< 20	–
Oc1cccc(-c2cc(Nc3ccc4cn[nH]c4c3)nc(N3CCOCC3)n2)c1	–	< 20
Oc1cccc(-c2cc(Nc3ccc(O)c(Cl)c3)nc(N3CCOCC3)n2)c1	–	< 20
COc1cccc(-c2nc(N3CCOCC3)nc(Nc3cccnc3)c2C(=O)O)c1	< 20	–
Oc1cccc(-c2cc(Nc3ccc4ncccc4c3)nc(N3CCOCC3)n2)c1	–	< 20
COc1ccc(Nc2cc(-c3cccc(O)c3)nc(N3CCOCC3)n2)cc1OC	–	< 20
